Reference: patent US9315494B2, “Alkyl-amide-substituted pyridyl compounds useful as modulators of IL-12, IL-23 and/or IFNα responses” (Bristol-Myers Squibb Company, priority 2012, dated 2016)
pIC50: −log10 of the molar value.

What was measured:
[1] = test system: IL-23-stimulated STAT-dependent luciferase reporter in Kit225 T cells; assay: Kit225 T cell assay, IL-23 stimulated STAT-dependent luciferase reporter; type: cell-based, human; settings: Kit225 T cells, 20 ng/mL human recombinant IL-23, 5-6 hours, luciferase; read-out: IL23 (Kit225 T Cell Inhibition Data)
Protocol: (§1) Kit225 T cells with a stably-integrated STAT-dependent luciferase reporter were plated in RPMI (Gibco) containing 10% heat-inactivated FBS (Gibco) and 100 U/mL PenStrep (Gibco). The cells were then stimulated with either 20 ng/mL human recombinant IL-23 or 200 U/mL human recombinant IFNα (PBL InterferonSource) for 5-6 hours. Luciferase expression was measured using the STEADY-GLO® Luciferase Assay System (Promega) according to the manufacturer's instructions.

[2] = test system: IFNα-stimulated STAT-dependent luciferase reporter in Kit225 T cells; assay: Kit225 T cell assay, IFNα stimulated STAT-dependent luciferase reporter; type: cell-based, human; settings: Kit225 T cells, 200 U/mL human recombinant IFNα, 5-6 hours, luciferase; read-out: IFNα (Kit225 T Cell Inhibition Data)
Protocol: as §1

pIC50 [1] | pIC50 [2] | SMILES
5.87 | 6.01 | CNC(=O)c1cnc(Nc2cc(Cl)ccn2)cc1Nc1ccc(F)cc1OC [Example 153]
6.44 | 6.72 | CNC(=O)c1cnc(Nc2ccn(C)n2)cc1Nc1ccccc1S(C)(=O)=O [Example 437]
7.05 | 7.05 | CNC(=O)c1cnc(Nc2ccn(C)n2)cc1Nc1cc(F)cc(F)c1OC [Example 407]
5.66 | 6.12 | CNC(=O)c1cnc(Nc2cccc(-c3ccccc3)n2)cc1Nc1ccc(Cl)cc1OC [Example 116]
6.65 | 6.80 | CNC(=O)c1ccnc(Nc2cc(Nc3cc(F)cc(F)c3OC)c(C(=O)NC)cn2)c1 [Example 273]
5.03 | 5.09 | CNC(=O)c1cnc(Nc2ccc(F)cn2)cc1Nc1ccc(F)c(F)c1 [Example 204]
6.00 | 6.38 | CNC(=O)c1cnc(Nc2ccccn2)cc1Nc1ccc(Cl)cc1OC [Example 110]
7.05 | 7.30 | CNC(=O)c1cnc(Nc2ccccn2)cc1Nc1cccc(F)c1OC [Example 172]
6.35 | 6.89 | CNC(=O)c1cnc(Nc2ccn(C(C)C)n2)cc1Nc1ccccc1S(C)(=O)=O [Example 442]
5.50 | 5.88 | CNC(=O)c1cnc(Nc2ccc3ccccc3n2)cc1NC1CCCC1C(N)=O (centres unmarked) [Example 288]
5.15 | 5.57 | CCNC(=O)c1cnc(Nc2ccc(F)cn2)cc1Nc1ccccc1OC [Example 296]
5.56 | 5.49 | CNC(=O)c1cnc(Nc2cc(C#N)ccn2)cc1Nc1cnccc1OC [Example 179]
7.30 | 8.00 | CNC(=O)c1cnc(Nc2cc(C)nc(C)n2)cc1Nc1cccc(-c2ncn(CC(F)F)n2)c1OC [Example 378]
5.87 | 5.93 | CNC(=O)c1cnc(Nc2cc(C(N)=O)ccn2)cc1Nc1cccc(F)c1OC [Example 276]
5.38 | 5.69 | CNC(=O)c1cnc(Nc2ccc(F)cn2)cc1Nc1cccc2[nH]ccc12 [Example 212]
7.05 | 7.10 | CNC(=O)c1cnc(Nc2ccccn2)cc1Nc1cc(F)ccc1S(C)(=O)=O [Example 53]
8.03 | 8.46 | CNC(=O)c1cnc(Nc2ccc(C#N)cn2)cc1Nc1cccc(-c2ncn(C)n2)c1OC [Example 376]
6.25 | 6.27 | CNC(=O)c1cnc(Nc2ccc(F)cn2)cc1Nc1ccc(OC)cc1OC [Example 192]
7.70 | 7.52 | CNC(=O)c1cnc(Nc2cc(C)nc(C)n2)cc1Nc1cccc(-c2nc(C)nn2C)c1OC [Example 367]
6.19 | 6.51 | CNC(=O)c1cnc(Nc2cc(C(=O)N(C)C)ccn2)cc1Nc1ccc(F)c(F)c1OC [Example 258]
5.90 | 5.84 | CNC(=O)c1cnc(Nc2ccc(F)cn2)cc1Nc1ccc(S(C)(=O)=O)cc1OC [Example 44]
7.05 | 7.10 | CNC(=O)c1cnc(Nc2cnc(C)c(C)n2)cc1Nc1ccccc1S(C)(=O)=O [Example 416]

pIC50 [1] | pIC50 [2] | SMILES
5.88 | 6.30 | CNC(=O)c1cnc(Nc2ccc(F)cn2)cc1Nc1cccnc1OC [Example 313]
6.66 | 7.15 | CNC(=O)c1cnc(Nc2cc(C)c(F)cn2)cc1Nc1cccc(C(=O)NCC2CC2)c1OC [Example 324]
5.24 | 5.16 | CNC(=O)c1cnc(Nc2ncccc2C)cc1Nc1ccccc1C(N)=O [Example 83]
6.13 | 6.41 | CNC(=O)c1cnc(Nc2cc3ccccc3cn2)cc1Nc1cc(F)cc(F)c1OC [Example 136]
5.98 | 6.17 | CNC(=O)c1ccnc(Nc2cc(Nc3ccc(F)cc3OC)c(C(=O)NC)cn2)c1 [Example 275]
5.28 | 5.01 | CNC(=O)c1cnc(Nc2ccc(C(F)(F)F)cn2)cc1Nc1ccc(F)cc1OC [Example 157]
5.04 | 5.51 | CNC(=O)c1cnc(Nc2ccc(F)cn2)cc1Nc1ccccc1N [Example 231]
5.48 | 5.69 | CNC(=O)c1cnc(Nc2ccc(F)cn2)cc1Nc1ccc(F)cc1SC [Example 207]
6.92 | 7.52 | CNC(=O)c1cnc(Nc2ccc(F)cn2)cc1Nc1cccc(C#N)c1OC [Example 357]
6.81 | 7.00 | CNC(=O)c1cnc(Nc2ccc(N3CCOCC3)cn2)cc1Nc1ccc(OC)cc1S(C)(=O)=O [Example 7]
6.72 | 6.80 | CNC(=O)c1cnc(Nc2cccc(F)n2)cc1Nc1cc(F)ccc1S(C)(=O)=O [Example 54]
6.11 | 6.25 | CNC(=O)c1cnc(Nc2cccc(-c3ccccc3)n2)cc1Nc1cc(F)cc(F)c1OC [Example 143]
6.72 | 7.10 | CNC(=O)c1cnc(Nc2cc(C)nc(C)n2)cc1Nc1cccnc1OC [Example 314]
6.55 | 6.92 | CNC(=O)c1cnc(Nc2cc(C)c(C#N)c(C)n2)cc1Nc1cc(F)cc(F)c1OC [Example 140]
6.25 | 6.15 | CNC(=O)c1cnc(Nc2cc(C(N)=O)ccn2)cc1Nc1ccc(F)c(F)c1OC [Example 256]
6.57 | 7.05 | CNC(=O)c1cnc(Nc2ccccn2)cc1Nc1ccc(F)cc1S(C)(=O)=O [Example 299]
6.80 | 7.30 | CNC(=O)c1cnc(Nc2ccccn2)cc1Nc1ccccc1S(N)(=O)=O [Example 430]
5.73 | 5.88 | CCc1ccc(Nc2cc(Nc3ccc(N4CCOCC4)cn3)ncc2C(=O)NC)cc1 [Example 213]
6.24 | 6.42 | CNC(=O)c1cnc(Nc2ccc(C)cn2)cc1Nc1ccccc1C(N)=O [Example 72]
 | 5.03 | CNC(=O)c1cnc(Nc2ccc(F)cn2)cc1Nc1ccc(F)cc1C [Example 189]
5.53 | 5.86 | CNC(=O)c1cnc(Nc2ccccn2)cc1Nc1cccc(F)c1S(C)(=O)=O [Example 46]
5.43 | 5.49 | CNC(=O)c1cnc(Nc2ccc(F)cn2)cc1Nc1ccc(C)cc1 [Example 193]

pIC50 [1] | pIC50 [2] | SMILES
6.34 | 6.82 | CNC(=O)c1cnc(Nc2ccc(N3CCOCC3)cn2)cc1Nc1ccc(Br)cc1OC [Example 221]
7.70 | 8.02 | CNC(=O)c1cnc(Nc2ccc(C(F)(F)F)cn2)cc1Nc1cccc(-c2ncn(C)n2)c1OC [Example 375]
5.94 | 5.90 | CNC(=O)c1cnc(Nc2ccc(F)cn2)cc1Nc1ccc(C(=O)N2CCCCC2)cc1 [Example 244]
6.21 | 6.18 | CCS(=O)(=O)c1ccccc1Nc1cc(Nc2cc(C#N)ccn2)ncc1C(=O)NC [Example 33]
5.66 | 6.07 | CNC(=O)c1cnc(Nc2ccc(F)cn2)cc1Nc1ccc(F)cc1OC [Example 119]
6.98 | 7.00 | CNC(=O)c1cnc(Nc2ccc(Cl)cn2)cc1Nc1ccccc1S(C)(=O)=O [Example 17]
6.44 | 6.29 | CNC(=O)c1cnc(Nc2ccc(F)cn2)cc1Nc1ccccc1OC [Example 190]
6.59 | 6.68 | CNC(=O)c1cnc(Nc2ccc(F)cn2)cc1Nc1ccc(F)c(F)c1OC [Example 96]
6.40 | 6.48 | CNC(=O)c1cnc(Nc2ccc(N3CCCCC3=O)cn2)cc1Nc1ccc(Cl)cc1OC [Example 103]
8.08 | 8.16 | CNC(=O)c1cnc(Nc2ccccn2)cc1Nc1cccc(-c2ncn(C)n2)c1OC [Example 374]
5.79 | 6.02 | CNC(=O)c1cnc(Nc2cc(C#N)ccn2)cc1Nc1cccc(F)c1S(C)(=O)=O [Example 48]
6.47 | 6.43 | CNC(=O)c1cnc(Nc2cc3ccccc3cn2)cc1Nc1ccccc1C(N)=O [Example 89]
7.30 | 7.70 | CNC(=O)c1cnc(Nc2cc(C)nc(C)n2)cc1Nc1cccc(-c2ncnn2CC(F)(F)F)c1OC [Example 381]
5.05 |  | CNC(=O)c1cnc(Nc2cccnn2)cc1Nc1ccccc1C(C)(C)O [Example 182]
6.33 |  | CNC(=O)c1cnc(Nc2ccc(C(N)=O)cn2)cc1Nc1ccccc1C(N)=O [Example 93]
6.29 |  | CNC(=O)c1cnc(Nc2cc(S(C)(=O)=O)ccn2)cc1Nc1cccc(F)c1OC [Example 282]
 | 5.02 | CNC(=O)c1cnc(Nc2ccc(F)cn2)cc1Nc1ccccc1S(=O)(=O)C(F)(F)F [Example 28]
5.21 |  | CNC(=O)c1cnc(Nc2ccc(C(F)(F)F)cn2)cc1Nc1ccccc1C(C)(C)O [Example 181]
6.41 |  | CNC(=O)c1cnc(Nc2cc(C#N)ccn2)cc1Nc1cccc(C)c1C(N)=O [Example 177]
 | 6.36 | CNC(=O)c1cnc(Nc2ccc(F)cn2)cc1Nc1cc2ccccc2cc1C(N)=O [Example 253]
 | 5.18 | CNC(=O)c1cnc(Nc2ccc(F)cn2)cc1Nc1cccc(OC)c1 [Example 202]

SMILES | pIC50 [1] | pIC50 [2]
CNC(=O)c1cnc(Nc2cnccn2)cc1Nc1ccc(F)cc1S(C)(=O)=O [Example 39] | 5.83 | 5.81
CNC(=O)c1cnc(Nc2cc(C#N)ccn2)cc1Nc1ccccc1S(C)(=O)=O [Example 5] | 7.09 | 7.30
CNC(=O)c1cnc(Nc2cc(C#N)ccn2)cc1Nc1ccccc1S(C)(=O)=O [Example 30] | 6.12 | 6.24
CNC(=O)c1cnc(Nc2cc(C#N)ccn2)cc1Nc1cccc(S(C)(=O)=O)c1F [Example 35] | 5.35 | 
